Test results from article PMC8327158, “PEGylated AdipoRon derivatives improve glucose and lipid metabolism under insulinopenic and high-fat diet conditions” (Journal of Lipid Research, 2021).
Converted amounts (≈) assume the structure as drawn.

What was measured:
[1] = parameters: method as in https://www.caymanchem.com/pdfs/15941.pdf; settings: ref https://www.caymanchem.com/pdfs/15941.pdf; cited from earlier work
[2] = parameters: method as in PMID 24172895; settings: oral administration at 50 mg kg−1 body weight; cited from earlier work
[3] = tested on: STZ-treated Adn−/− mice; test: OGTT and triglyceride tolerance test in STZ-treated adiponectin knockout mice; type: in vivo, mouse
Protocol: For oral glucose tolerance test (OGTT), mice were fasted for 4–6 h and subjected to an oral gavage of dextrose (2 mg/g body weight). Tail blood was collected at 0, 15, 30, 60, and 120 min and prepared for serum and assayed for glucose and insulin. For insulin tolerance test (ITT), insulin (0.75 U/kg Humulin R; Eli Lilly, Indianapolis, IN) was administered under fed condition. Serum glucose level was measured at 0, 15, 30, 60, and 90 min time point. Triglyceride tolerance test (TGTT) was initiated by oral gavage of 20% Intralipid (10 μl/g BDW, l141-100 ml, Sigma), and serum was collected at 0, 1, 1.5, 3, and 6 h for triglyceride assay. Glucose, insulin, and triacylglyceride levels were measured using an oxidase-peroxidase assay (Sigma P7119), insulin ELISA (Crystal Chem, Elk Grove village, IL, #15596018), and Infinity Triglycerides Reagent (Thermo Fisher Scientific TR22421).
Streptozotocin (STZ; Sigma S1030) was dissolved by 0.05 M citrate buffer (final; 20 mg/ml). Following 6 h fasting, mice received a single intraperitoneal injection of streptozotocin (200 mg/kg) to induce insulinopenic conditions.

[4] = tested on: wild-type mice; test: Cold exposure (4°C): body temperature, scWAT histology, qPCR; type: in vivo, mouse
Protocol: In total, 5 mg/Kg of PBS and AdipoRonPEG5 were injected twice a day for 5 days at room temperature followed by housing in the cold chamber (4°C) for 7 days. Body temperature was measured at 0, 1, 2, 3, 4, and 5 h time point at the first day of cold exposure. In total, 5 mg/Kg of PBS and AdipoRonPEG5 were injected once a day for 7 days after cold exposure followed by harvesting tissues for qPCR analysis.

[5] = tested on: HFD-fed mice; test: qPCR gene expression in pancreas, BAT and scWAT of HFD mice; type: in vivo, mouse
Protocol: Total RNA was extracted with the RNeasy Mini kit (Qiagen #74106) for the pancreas or Trizol (Invitrogen #15596018) for the liver and adipose tissue. cDNA was synthesized with iScript cDNA Synthesis Kit (Bio-Rad #170-8891). Quantitative real-time PCR (qPCR) was performed with the Powerup SYBR Green PCR master mix (Applied Biosystems # A25742) on Quantistudio 6 Flex Real-Time PCR System (Applied Biosystems #4485694). Primer sequences for qPCR are listed in supplemental Table S2.
Six-week-old wild-type male mice were fed HFD for 4 weeks or 7 months In total, 5 mg/Kg of PBS, Adiporon, AdipoRonPEG5, AdipoRonPEG6HTL were injected twice a day for 5 days. After 5 days of treatment, systemic test is performed, and serum (Before and after treatment), subcutaneous, epididymal, liver, heart samples were harvested for qPCR and sphingolipid analysis.

SMILES	solubility in neutral phosphate buffer containing >30% DMSO [1] [µg/mL]	maximal plasma concentration [2] [µM]	blood TG levels in triglyceride tolerance test [3]	glucose levels in OGTT [3]	subcutaneous adipose tissue histology after cold exposure ([4]; 5 mg/kg, 4°C)	body temperature after acute cold exposure ([4]; 5 mg/kg, 5 days treatment, 4°C)	T-cadherin (CDH13) expression ([4]; scWAT and BAT after cold exposure, qPCR)	Cpt-1a expression ([5]; BAT)	Prdm16 expression ([5]; BAT)	fibrosis-related genes (Col1a1, Col3a1, Fn1) and Tgfb1 ([5]; subcutaneous adipose tissue)	genes maintaining the functional state of pancreatic β-cells ([5]; whole pancreas lysate)
O=C(COc1ccc(C(=O)c2ccccc2)cc1)NC1CCN(Cc2ccccc2)CC1 [AdipoRon]	250 (≈ 583 µM)	11.8	–	–	–	–	–	–	–	–	–
O=C(COc1ccc(C(=O)c2ccccc2)cc1)NC1CCN(Cc2ccc(OCCOCCOCCOCCOCCO)cc2)CC1 [AdipoRonPEG5]	–	–	not altered	improved the glucose levels	resembling beige adipocytes	significantly higher body temperature	upregulated expression	increased expression	significant upregulation	lowered	did not detect a significant upregulation
